Source: ChEMBL document CHEMBL4507277

Columns and labels:
[1] = target: Insulin-like growth factor 1 receptor (Homo sapiens) (UniProt P08069); settings: Compound concentration 1000.0 nM
[2] = target: Dual specificity mitogen-activated protein kinase kinase 6 (Homo sapiens) (UniProt P52564); settings: Compound concentration 1000.0 nM
[3] = target: Acetylcholine receptor subunit alpha (Homo sapiens) (UniProt P02708); settings: Compound concentration 10.0 uM
[4] = target: Atypical kinase COQ8B, mitochondrial (Homo sapiens) (UniProt Q96D53); settings: Compound concentration 1000.0 nM
[5] = target: Sodium-dependent serotonin transporter (Homo sapiens) (UniProt P31645); settings: Compound concentration 10.0 uM
[6] = target: cGMP-inhibited 3',5'-cyclic phosphodiesterase 3A (Homo sapiens) (UniProt Q14432); settings: Compound concentration 10.0 uM
[7] = target: Cyclin-dependent kinase 18 (Homo sapiens) (UniProt Q07002); settings: Compound concentration 1000.0 nM
[8] = target: Polyunsaturated fatty acid 5-lipoxygenase (Homo sapiens) (UniProt P09917); settings: Compound concentration 10.0 uM
[9] = target: D(1A) dopamine receptor (Homo sapiens) (UniProt P21728); settings: Compound concentration 10.0 uM
[10] = target: Serotonin 1 (5-HT1) receptor (Rattus norvegicus) (UniProt P28564+P30940+P19327+P28565); settings: Compound concentration 10.0 uM
[11] = target: Thromboxane-A synthase (Homo sapiens) (UniProt P24557); settings: Compound concentration 10.0 uM
[12] = target: Hepatocyte growth factor receptor (Homo sapiens) (UniProt P08581); settings: Compound concentration 1000.0 nM
[13] = test system: Epidermal growth factor receptor (Homo sapiens), P00533 [L858R]; settings: Compound concentration 1000.0 nM
[14] = target: Mitogen-activated protein kinase kinase kinase kinase 3 (Homo sapiens) (UniProt Q8IVH8); settings: Compound concentration 1000.0 nM
Mitogen-activated protein kinase kinase kinase kinase 3 (Homo sapiens), sequence (Q8IVH8 whole entry): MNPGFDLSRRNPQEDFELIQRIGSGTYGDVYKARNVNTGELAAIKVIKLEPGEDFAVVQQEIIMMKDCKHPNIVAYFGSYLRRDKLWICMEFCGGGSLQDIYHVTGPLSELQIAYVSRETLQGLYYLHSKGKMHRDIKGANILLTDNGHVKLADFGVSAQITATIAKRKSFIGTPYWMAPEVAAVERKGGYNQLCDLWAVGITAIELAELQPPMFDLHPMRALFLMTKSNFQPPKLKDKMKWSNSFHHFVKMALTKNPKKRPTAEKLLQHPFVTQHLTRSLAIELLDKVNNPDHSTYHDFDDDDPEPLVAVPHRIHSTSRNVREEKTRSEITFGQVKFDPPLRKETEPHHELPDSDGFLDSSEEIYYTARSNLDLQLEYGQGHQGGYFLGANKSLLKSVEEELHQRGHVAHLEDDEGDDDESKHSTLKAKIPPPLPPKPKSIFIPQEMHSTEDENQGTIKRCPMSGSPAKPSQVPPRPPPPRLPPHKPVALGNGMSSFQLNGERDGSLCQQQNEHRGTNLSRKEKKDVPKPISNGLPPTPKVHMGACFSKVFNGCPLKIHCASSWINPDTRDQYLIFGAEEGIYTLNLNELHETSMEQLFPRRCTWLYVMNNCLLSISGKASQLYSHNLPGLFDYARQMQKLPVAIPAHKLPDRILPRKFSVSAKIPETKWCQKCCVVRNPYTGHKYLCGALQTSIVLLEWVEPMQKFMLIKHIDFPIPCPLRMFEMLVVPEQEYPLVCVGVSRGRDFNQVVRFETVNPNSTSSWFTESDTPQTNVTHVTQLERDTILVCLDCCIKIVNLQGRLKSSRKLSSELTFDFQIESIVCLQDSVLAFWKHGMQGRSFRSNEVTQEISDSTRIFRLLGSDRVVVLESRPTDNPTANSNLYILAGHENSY

[15] = target: Muscarinic acetylcholine receptor (Rattus norvegicus) (UniProt P08482+P08483+P08485+P08911+P10980); settings: Compound concentration 10.0 uM
[16] = target: Phosphatidylinositol 5-phosphate 4-kinase type-2 beta (Homo sapiens) (UniProt P78356); settings: Compound concentration 1000.0 nM
[17] = target: 3',5'-cyclic-AMP phosphodiesterase 4A (Homo sapiens) (UniProt P27815); settings: Compound concentration 10.0 uM
[18] = target: Serine/threonine-protein kinase WNK4 (Homo sapiens) (UniProt Q96J92); settings: Compound concentration 1000.0 nM
[19] = target: Calcium/calmodulin-dependent protein kinase type 1G (Homo sapiens) (UniProt Q96NX5); settings: Compound concentration 1000.0 nM
[20] = target: Interstitial collagenase (Homo sapiens) (UniProt P03956); settings: Compound concentration 10.0 uM
[21] = target: Voltage-dependent N-type calcium channel subunit alpha-1B (Rattus norvegicus) (UniProt Q02294); settings: Compound concentration 10.0 uM
[22] = target: 1-phosphatidylinositol 3-phosphate 5-kinase (Homo sapiens) (UniProt Q9Y2I7); settings: Compound concentration 1000.0 nM
1-phosphatidylinositol 3-phosphate 5-kinase (Homo sapiens), sequence (Q9Y2I7 whole entry): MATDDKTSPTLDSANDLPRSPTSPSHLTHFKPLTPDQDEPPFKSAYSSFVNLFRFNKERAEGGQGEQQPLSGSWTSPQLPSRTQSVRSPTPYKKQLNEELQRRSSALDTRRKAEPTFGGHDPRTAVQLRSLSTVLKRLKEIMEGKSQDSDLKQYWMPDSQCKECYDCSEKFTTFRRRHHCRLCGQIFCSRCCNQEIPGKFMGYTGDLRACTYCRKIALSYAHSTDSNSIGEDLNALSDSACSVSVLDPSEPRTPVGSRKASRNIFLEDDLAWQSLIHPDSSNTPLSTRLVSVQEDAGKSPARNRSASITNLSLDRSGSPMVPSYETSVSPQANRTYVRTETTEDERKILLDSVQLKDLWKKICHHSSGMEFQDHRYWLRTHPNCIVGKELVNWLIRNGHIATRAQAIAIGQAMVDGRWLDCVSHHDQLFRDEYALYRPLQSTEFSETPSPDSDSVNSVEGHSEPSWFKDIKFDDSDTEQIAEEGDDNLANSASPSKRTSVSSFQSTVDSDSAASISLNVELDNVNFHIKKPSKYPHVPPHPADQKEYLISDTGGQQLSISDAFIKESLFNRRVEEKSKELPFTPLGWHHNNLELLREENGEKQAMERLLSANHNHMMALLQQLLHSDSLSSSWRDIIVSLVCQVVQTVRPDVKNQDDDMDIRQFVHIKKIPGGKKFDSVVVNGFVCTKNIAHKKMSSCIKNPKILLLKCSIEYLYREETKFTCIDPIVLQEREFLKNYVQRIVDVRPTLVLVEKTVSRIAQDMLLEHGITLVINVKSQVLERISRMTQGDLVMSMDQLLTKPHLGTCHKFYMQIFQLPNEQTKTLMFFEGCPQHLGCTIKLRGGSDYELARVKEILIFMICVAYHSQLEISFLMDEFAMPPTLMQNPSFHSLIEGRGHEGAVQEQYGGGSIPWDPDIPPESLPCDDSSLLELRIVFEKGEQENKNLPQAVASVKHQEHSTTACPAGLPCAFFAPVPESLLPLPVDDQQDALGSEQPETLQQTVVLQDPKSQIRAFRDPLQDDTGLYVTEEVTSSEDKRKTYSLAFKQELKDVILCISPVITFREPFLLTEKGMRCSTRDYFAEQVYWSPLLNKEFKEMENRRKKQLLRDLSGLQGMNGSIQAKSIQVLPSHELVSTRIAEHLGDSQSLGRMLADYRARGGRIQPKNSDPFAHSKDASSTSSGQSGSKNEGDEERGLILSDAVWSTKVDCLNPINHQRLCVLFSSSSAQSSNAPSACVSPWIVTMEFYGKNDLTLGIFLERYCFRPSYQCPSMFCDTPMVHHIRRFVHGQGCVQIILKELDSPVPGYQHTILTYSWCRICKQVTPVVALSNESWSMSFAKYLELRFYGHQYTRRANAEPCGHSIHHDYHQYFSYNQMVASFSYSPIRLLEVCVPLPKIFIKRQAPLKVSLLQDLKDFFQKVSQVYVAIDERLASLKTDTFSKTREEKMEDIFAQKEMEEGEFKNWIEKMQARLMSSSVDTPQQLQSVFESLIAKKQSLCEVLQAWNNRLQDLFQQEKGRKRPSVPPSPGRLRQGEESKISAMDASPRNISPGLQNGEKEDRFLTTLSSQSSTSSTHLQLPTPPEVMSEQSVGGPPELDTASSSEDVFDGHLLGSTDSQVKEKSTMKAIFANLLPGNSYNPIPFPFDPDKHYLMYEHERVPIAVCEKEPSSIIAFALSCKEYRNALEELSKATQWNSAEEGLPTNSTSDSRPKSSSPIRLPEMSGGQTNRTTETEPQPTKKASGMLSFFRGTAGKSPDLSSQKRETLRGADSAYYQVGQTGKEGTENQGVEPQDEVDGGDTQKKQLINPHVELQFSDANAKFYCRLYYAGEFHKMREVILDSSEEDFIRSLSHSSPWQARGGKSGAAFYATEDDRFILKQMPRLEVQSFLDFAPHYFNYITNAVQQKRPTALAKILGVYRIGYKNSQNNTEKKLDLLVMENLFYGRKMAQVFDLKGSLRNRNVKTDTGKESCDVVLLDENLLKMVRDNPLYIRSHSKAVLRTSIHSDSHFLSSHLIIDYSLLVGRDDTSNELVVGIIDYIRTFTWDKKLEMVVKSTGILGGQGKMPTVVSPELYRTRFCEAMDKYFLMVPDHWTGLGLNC

[23] = test system: Epidermal growth factor receptor (Homo sapiens), P00533 [L858R,T790M]; settings: Compound concentration 1000.0 nM
[24] = target: Adenosine receptor A1 (Homo sapiens) (UniProt P30542); settings: Compound concentration 10.0 uM
[25] = target: Polyunsaturated fatty acid lipoxygenase ALOX15 (Oryctolagus cuniculus) (UniProt P12530); settings: Compound concentration 10.0 uM
[26] = target: Acetylcholinesterase (Homo sapiens) (UniProt P22303); settings: Compound concentration 10.0 uM
[27] = target: Beta-1 adrenergic receptor (Homo sapiens) (UniProt P08588); settings: Compound concentration 10.0 uM
[28] = target: Serine/threonine-protein kinase NLK (Homo sapiens) (UniProt Q9UBE8); settings: Compound concentration 1000.0 nM
[29] = target: LIM domain kinase 1 (Homo sapiens) (UniProt P53667); settings: Compound concentration 1000.0 nM
[30] = target: Death-associated protein kinase 2 (Homo sapiens) (UniProt Q9UIK4); settings: Compound concentration 1000.0 nM
Death-associated protein kinase 2 (Homo sapiens), sequence (Q9UIK4 whole entry, looked up): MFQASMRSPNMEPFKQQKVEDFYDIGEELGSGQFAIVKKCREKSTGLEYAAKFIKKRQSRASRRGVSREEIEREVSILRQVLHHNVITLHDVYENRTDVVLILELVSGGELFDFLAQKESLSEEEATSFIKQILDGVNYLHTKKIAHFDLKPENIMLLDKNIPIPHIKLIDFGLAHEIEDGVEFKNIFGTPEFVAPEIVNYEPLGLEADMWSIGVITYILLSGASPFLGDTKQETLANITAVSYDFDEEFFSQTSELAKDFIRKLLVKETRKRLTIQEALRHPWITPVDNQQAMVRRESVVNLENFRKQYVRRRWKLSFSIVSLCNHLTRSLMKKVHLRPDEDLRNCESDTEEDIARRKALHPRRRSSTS

[31] = target: MAP/microtubule affinity-regulating kinase 4 (Homo sapiens) (UniProt Q96L34); settings: Compound concentration 1000.0 nM
MAP/microtubule affinity-regulating kinase 4 (Homo sapiens), sequence (Q96L34 whole entry, canonical isoform): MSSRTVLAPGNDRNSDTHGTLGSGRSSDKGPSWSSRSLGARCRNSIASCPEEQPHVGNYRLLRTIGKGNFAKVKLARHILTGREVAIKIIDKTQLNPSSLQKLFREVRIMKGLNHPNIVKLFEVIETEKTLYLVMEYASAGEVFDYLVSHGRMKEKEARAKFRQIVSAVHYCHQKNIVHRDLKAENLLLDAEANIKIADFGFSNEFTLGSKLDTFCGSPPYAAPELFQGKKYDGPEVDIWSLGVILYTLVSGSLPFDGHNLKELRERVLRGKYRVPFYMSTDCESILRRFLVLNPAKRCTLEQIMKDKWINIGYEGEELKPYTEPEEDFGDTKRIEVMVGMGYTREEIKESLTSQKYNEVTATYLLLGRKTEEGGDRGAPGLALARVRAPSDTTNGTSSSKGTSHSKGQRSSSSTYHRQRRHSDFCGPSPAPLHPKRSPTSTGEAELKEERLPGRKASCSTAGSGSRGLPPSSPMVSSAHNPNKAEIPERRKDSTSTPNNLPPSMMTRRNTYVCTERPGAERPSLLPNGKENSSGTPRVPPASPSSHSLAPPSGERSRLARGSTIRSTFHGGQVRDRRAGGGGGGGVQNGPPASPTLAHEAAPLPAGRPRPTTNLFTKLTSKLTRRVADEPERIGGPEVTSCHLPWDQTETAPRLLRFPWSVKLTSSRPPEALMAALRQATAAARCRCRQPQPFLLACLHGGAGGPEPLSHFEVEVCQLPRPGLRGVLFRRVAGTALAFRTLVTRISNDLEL

[32] = target: Casein kinase I isoform epsilon (Homo sapiens) (UniProt P49674); settings: Compound concentration 1000.0 nM
[33] = target: Dual specificity protein kinase CLK2 (Homo sapiens) (UniProt P49760); settings: Compound concentration 1000.0 nM
[34] = target: Death-associated protein kinase 1 (Homo sapiens) (UniProt P53355); settings: Compound concentration 1000.0 nM
[35] = target: D(3) dopamine receptor (Homo sapiens) (UniProt P35462); settings: Compound concentration 10.0 uM
[36] = test system: Tyrosine-protein kinase ABL1 (Homo sapiens), P00519 [F317I]; settings: Compound concentration 1000.0 nM
[37] = target: Myosin light chain kinase family member 4 (Homo sapiens) (UniProt Q86YV6); settings: Compound concentration 1000.0 nM
Myosin light chain kinase family member 4 (Homo sapiens), sequence (Q86YV6 whole entry): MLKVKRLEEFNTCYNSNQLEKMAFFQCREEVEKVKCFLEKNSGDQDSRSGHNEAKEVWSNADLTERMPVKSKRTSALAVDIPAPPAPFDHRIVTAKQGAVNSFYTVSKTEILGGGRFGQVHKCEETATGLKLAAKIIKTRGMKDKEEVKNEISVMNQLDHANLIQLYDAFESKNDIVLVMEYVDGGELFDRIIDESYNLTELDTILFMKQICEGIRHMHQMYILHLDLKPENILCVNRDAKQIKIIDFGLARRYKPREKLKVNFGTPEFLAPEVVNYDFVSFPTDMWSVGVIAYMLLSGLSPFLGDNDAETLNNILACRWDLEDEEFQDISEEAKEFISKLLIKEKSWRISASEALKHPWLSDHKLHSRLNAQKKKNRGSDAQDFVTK

[38] = target: Beta-1 adrenergic receptor (Homo sapiens) (UniProt P08588); settings: Compound concentration 10.0 uM; remark: listed apart in the source
[39] = target: 5-hydroxytryptamine receptor 1A (Homo sapiens) (UniProt P08908); settings: Compound concentration 10.0 uM

Dual specificity mitogen-activated protein kinase kinase 6 (Homo sapiens), sequence (P52564 whole entry): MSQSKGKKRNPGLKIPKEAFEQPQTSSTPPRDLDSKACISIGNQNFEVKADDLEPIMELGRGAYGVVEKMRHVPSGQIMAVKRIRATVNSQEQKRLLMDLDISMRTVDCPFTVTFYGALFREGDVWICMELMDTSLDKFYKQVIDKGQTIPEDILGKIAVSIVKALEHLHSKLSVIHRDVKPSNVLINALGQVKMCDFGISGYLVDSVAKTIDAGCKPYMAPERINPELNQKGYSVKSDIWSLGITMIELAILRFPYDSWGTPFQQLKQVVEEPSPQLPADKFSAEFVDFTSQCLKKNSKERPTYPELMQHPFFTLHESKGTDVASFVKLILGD

| SMILES | residual activity [1] | residual activity [2] | residual activity [4] | residual activity [7] | residual activity [12] | residual activity [13] | residual activity [14] | residual activity [16] | residual activity [18] | residual activity [19] | residual activity [22] | residual activity [23] | residual activity [28] | residual activity [29] | residual activity [30] | residual activity [31] | residual activity [32] | residual activity [33] | residual activity [34] | residual activity [36] | further results |
| --- | --- | --- | --- | --- | --- | --- | --- | --- | --- | --- | --- | --- | --- | --- | --- | --- | --- | --- | --- | --- | --- |
| CCS(=O)(=O)c1cc2cc(C[C@](O)(CC(C)(C)c3ccc(F)cc3C(N)=O)C(F)(F)F)[nH]c2cn1 | 100% | 80% | 78% | 100% | 98% | 100% | 83% | 96% | 100% | 100% | 97% | 83% | 100% | 100% | 90% | 100% | 95% | 100% | 92% | 94% | residual activity [3]: 101%; residual activity [5]: 99%; residual activity [6]: 82%; residual activity [8]: 79%; residual activity [9]: 92%; residual activity [10]: 118%; residual activity [11]: 93%; residual activity [15]: 103%; residual activity [17]: 81%; residual activity [20]: 94%; residual activity [21]: 96%; residual activity [24]: 107%; residual activity [25]: 89%; residual activity [26]: 91%; residual activity [27]: 90%; residual activity [35]: 81%; residual activity [37]: 100% |
| CCS(=O)(=O)c1cc2cc(C[C@@](O)(CC(C)(C)c3ccc(F)cc3C(N)=O)C(F)(F)F)[nH]c2cn1 | 100% | 84% | 100% | 100% | 100% | 90% | 82% | 85% | 84% | 100% | 69% | 83% | 100% | 100% | 100% | 100% | 97% | 100% | 0% | 100% | inhibition [38]: -8.85%; inhibition [39]: -7.37%; residual activity [37]: 100% |
